Starred links: 1 amine or outer side, 2 acyl side, 3 side chain; linkers in the order of their positions; H or OH if unused. Positions of bridges follow the written chain, without caps; N, C: chain ends. Non-standard residues stand in square brackets, D forms with d. Residues, ends and D or L forms follow the SMILES beside them. *: point of attachment. Me3N+(CH2)2O(CH2)2O(CH2)2CO = C[N+](C)(C)CCOCCOCCC(=O)*; CH2CH2OCH2CH2OCH2CH2NMe3+ = C[N+](C)(C)CCOCCOCC*; Trp(7-Me) = Cc1cccc2c(C[C@H](N)C(=O)O)c[nH]c12; Decanoyl(3,6,9-trioxa) = COCCOCCOCC(=O)*; Dab(NMeAc) = CC(=O)N(C)CC[C@H](N)C(=O)O; X1 = CN(CC[C@H](N[*:1])C(=O)[*:2])[*:3]; 2Nal = N[C@@H](Cc1ccc2ccccc2c1)C(=O)O; AEF = NCCOc1ccc(C[C@H](N)C(=O)O)cc1; X24 = C[N+](C)(CCN[*:1])CC(=O)[*:2]; 3Pal = N[C@@H](Cc1cccnc1)C(=O)O; Lys(Me) = CNCCCC[C@H](N)C(=O)O; Pen = CC(C)(S)[C@H](N)C(=O)O; Thp = NC1(C(=O)O)CCOCC1; Sar = CNCC(=O)O
Assay: Exposed Polar Surface Area (EPSA)
Type: physicochemical
Details: SFC on Chirex 3014 column; sample 1 mM DMSO stock; read-out: EPSA
Outline: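 Retention-based polarity: supercritical CO2 with 20 mM ammonium formate in MeOH (5–60%, 20%/min), Chirex 3014 column, 35 °C. Calibrated against 8 standards to give EPSA (Å^2); each sample measured twice.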

EPSA [A^2]	SMILES
146	CC(=O)NCCCC[C@@H]1NC(=O)[C@H](Cc2c[nH]c3c(C)cccc23)NC(=O)[C@H]([C@@H](C)O)NC(=O)[C@H](CC(N)=O)NC(=O)[C@@H](NC(C)=O)C(C)(C)SSC(C)(C)[C@@H](C(=O)N[C@@H](Cc2ccc(OCCOCCOCC[N+](C)(C)C)cc2)C(=O)N[C@@H](Cc2ccc3ccccc3c2)C(=O)NC2(C(=O)N[C@@H](CCCCNC(C)=O)C(=O)N[C@@H](CC(N)=O)C(=O)N[C@@H](Cc3cccnc3)C(=O)N(C)CC(N)=O)CCOCC2)NC1=O [compound 194] (Ac-[Pen]NT[Trp(7-Me)]K(Ac)[Pen]Y(CH2CH2OCH2CH2OCH2CH2NMe3+)[2Nal][Thp]K(Ac)N[3Pal][Sar]-NH2; disulfide 1-6)
147	CC(=O)NCCCC[C@@H]1NC(=O)[C@H](Cc2c[nH]c3c(C)cccc23)NC(=O)[C@H]([C@@H](C)O)NC(=O)[C@H](CC(N)=O)NC(=O)[C@@H](NC(=O)CCOCCOCC[N+](C)(C)C)C(C)(C)SSC(C)(C)[C@@H](C(=O)N[C@@H](Cc2ccc(OCCOCCOCC[N+](C)(C)C)cc2)C(=O)N[C@@H](Cc2ccc3ccccc3c2)C(=O)NC2(C(=O)N[C@@H](CCCCNC(C)=O)C(=O)N[C@@H](CC(N)=O)C(=O)N[C@@H](Cc3cccnc3)C(=O)N(C)CC(N)=O)CCOCC2)NC1=O [compound 195, cPEG3aCO-Pen(3)-N-T-7MeW-K(Ac)-Pen(3)-APEG3F-2Nal-THP-K(Ac)-N-3Pya-Sar-CONH2] ({Me3N+(CH2)2O(CH2)2O(CH2)2CO}-[Pen]NT[Trp(7-Me)]K(Ac)[Pen]Y(CH2CH2OCH2CH2OCH2CH2NMe3+)[2Nal][Thp]K(Ac)N[3Pal][Sar]-NH2; disulfide 1-6)
149	CC(=O)N(C)CC[C@H](NC(=O)C1(NC(=O)[C@H](Cc2ccc3ccccc3c2)NC(=O)[C@H](Cc2ccc(OCCN)cc2)NC(=O)[C@H]2NC(=O)[C@H](CCN(C)C(=O)CCOCCOCC[N+](C)(C)C)NC(=O)[C@H](Cc3c[nH]c4c(C)cccc34)NC(=O)[C@H]([C@@H](C)O)NC(=O)[C@H](CC(=O)N(C)C)NC(=O)[C@@H](NC(=O)CCOCCOCC[N+](C)(C)C)C(C)(C)SSC2(C)C)CCOCC1)C(=O)N[C@@H](CC(N)=O)C(=O)N[C@@H](Cc1cccnc1)C(=O)N(C)CC(=O)N(C)C [compound 196, cPEG3aCO-Pen(3)-N(N(Me)2)-T-7MeW-Dab(NMecPEG3a)-Pen(3)-AEF-2Nal-THP-Dab(NMeAc)-N-3Pya-Sar-CON(Me)2] ({Me3N+(CH2)2O(CH2)2O(CH2)2CO}-[Pen]D(NMe2)T[Trp(7-Me)][X1](Me3N+(CH2)2O(CH2)2O(CH2)2CO)[Pen][AEF][2Nal][Thp][Dab(NMeAc)]N[3Pal][Sar]-NMe2; disulfide 1-6 (inferred))
137	COCCOCCOCC(=O)NCC[N+](C)(C)CC(=O)N[C@@H]1C(=O)N[C@@H](CC(=O)N(C)C)C(=O)N[C@@H]([C@@H](C)O)C(=O)N[C@@H](Cc2c[nH]c3c(C)cccc23)C(=O)N[C@@H](CCCCN(C)C(C)=O)C(=O)N[C@H](C(=O)N[C@@H](Cc2ccc(OCCOCCOCC[N+](C)(C)C)cc2)C(=O)N[C@@H](Cc2ccc3ccccc3c2)C(=O)NC2(C(=O)N[C@@H](CCN(C)C(C)=O)C(=O)N[C@@H](CC(N)=O)C(=O)N[C@@H](Cc3cccnc3)C(=O)N(C)CC(=O)N(C)C)CCOCC2)C(C)(C)SSC1(C)C [compound 197, mPEG3CO-SP6-Pen(3)-N(N(Me)2)-T-7MeW-K(NMeAc)-Pen(3)-APEG3F-2Nal-THP-Dab(NMeAc)-N-3Pya-Sar-CON(Me)2] ({Decanoyl(3,6,9-trioxa)}-[X24][Pen]D(NMe2)T[Trp(7-Me)][Lys(Me)](Ac)[Pen]Y(CH2CH2OCH2CH2OCH2CH2NMe3+)[2Nal][Thp][Dab(NMeAc)]N[3Pal][Sar]-NMe2; disulfide 2-7)

Reference: patent US20260022143A1, “Cyclic Peptide Inhibitors of IL-23” (JANSSEN PHARMACEUTICA NV, priority 2022, published 2026)
